Blank lines part the entries; values can stand above or below the compound they belong to.
How the values were obtained:
Design in all cases: recommended concentration 1 uM
[1] = biological target: T1, Hepatocyte nuclear factor 4-alpha (Homo sapiens) (UniProt P41235); experiment: Selectivity interaction (Reporter gene assay) EUB0000551aCl HNF4A
T1 sequence (whole entry): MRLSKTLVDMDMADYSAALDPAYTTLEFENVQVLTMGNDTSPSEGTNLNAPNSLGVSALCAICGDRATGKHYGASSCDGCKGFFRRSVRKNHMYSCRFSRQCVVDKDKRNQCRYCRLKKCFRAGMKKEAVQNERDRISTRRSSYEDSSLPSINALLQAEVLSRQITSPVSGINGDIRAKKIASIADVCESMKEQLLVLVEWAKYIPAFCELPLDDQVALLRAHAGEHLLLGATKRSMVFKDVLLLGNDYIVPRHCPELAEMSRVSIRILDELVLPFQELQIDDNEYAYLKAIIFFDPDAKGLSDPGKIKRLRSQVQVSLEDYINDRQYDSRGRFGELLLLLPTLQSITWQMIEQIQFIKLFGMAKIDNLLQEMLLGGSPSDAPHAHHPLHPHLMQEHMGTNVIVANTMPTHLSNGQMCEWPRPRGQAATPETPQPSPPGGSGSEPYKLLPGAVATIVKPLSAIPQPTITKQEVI

[2] = biological target: T2, Nuclear receptor subfamily 2 group C member 1 (Homo sapiens) (UniProt P13056); experiment: Selectivity interaction (Reporter gene assay) EUB0000551aCl NR2C1
T2 sequence (whole entry): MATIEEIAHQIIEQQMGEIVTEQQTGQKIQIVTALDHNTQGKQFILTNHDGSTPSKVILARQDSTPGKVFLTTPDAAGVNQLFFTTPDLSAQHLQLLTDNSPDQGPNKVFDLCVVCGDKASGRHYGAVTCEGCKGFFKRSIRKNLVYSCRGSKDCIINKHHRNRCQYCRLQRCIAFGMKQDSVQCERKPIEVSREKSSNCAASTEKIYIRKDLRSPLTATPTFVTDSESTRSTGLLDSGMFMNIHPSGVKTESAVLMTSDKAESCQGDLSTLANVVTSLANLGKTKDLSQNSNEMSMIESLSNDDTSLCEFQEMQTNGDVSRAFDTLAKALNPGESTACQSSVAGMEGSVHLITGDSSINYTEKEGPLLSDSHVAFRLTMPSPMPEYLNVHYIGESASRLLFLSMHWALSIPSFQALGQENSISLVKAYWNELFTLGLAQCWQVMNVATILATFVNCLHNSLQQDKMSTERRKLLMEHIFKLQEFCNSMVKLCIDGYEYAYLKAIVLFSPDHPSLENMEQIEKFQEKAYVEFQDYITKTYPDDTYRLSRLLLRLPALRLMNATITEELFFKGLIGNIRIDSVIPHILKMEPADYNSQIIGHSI

[3] = biological target: Nuclear receptor subfamily 2 group E member 1 (Homo sapiens) (UniProt Q9Y466); experiment: Selectivity interaction (Reporter gene assay) EUB0000551aCl NR2E1
Sequence of Nuclear receptor subfamily 2 group E member 1 (Homo sapiens) (Q9Y466 whole entry): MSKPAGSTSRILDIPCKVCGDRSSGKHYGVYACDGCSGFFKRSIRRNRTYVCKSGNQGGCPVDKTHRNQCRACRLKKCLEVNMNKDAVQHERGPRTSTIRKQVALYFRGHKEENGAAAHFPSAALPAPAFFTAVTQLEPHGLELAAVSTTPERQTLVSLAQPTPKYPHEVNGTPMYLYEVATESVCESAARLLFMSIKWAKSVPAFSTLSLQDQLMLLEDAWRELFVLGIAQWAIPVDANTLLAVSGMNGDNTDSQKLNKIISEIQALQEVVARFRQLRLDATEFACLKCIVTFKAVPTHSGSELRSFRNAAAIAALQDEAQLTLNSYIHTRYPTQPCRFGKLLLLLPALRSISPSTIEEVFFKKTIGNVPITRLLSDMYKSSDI

[4] = biological target: Nuclear receptor subfamily 4immunitygroup A member 1 (Homo sapiens) (UniProt P22736); experiment: Selectivity interaction (Reporter gene assay) EUB0000551aCl NR4A1
Sequence of Nuclear receptor subfamily 4immunitygroup A member 1 (Homo sapiens) (P22736 whole entry): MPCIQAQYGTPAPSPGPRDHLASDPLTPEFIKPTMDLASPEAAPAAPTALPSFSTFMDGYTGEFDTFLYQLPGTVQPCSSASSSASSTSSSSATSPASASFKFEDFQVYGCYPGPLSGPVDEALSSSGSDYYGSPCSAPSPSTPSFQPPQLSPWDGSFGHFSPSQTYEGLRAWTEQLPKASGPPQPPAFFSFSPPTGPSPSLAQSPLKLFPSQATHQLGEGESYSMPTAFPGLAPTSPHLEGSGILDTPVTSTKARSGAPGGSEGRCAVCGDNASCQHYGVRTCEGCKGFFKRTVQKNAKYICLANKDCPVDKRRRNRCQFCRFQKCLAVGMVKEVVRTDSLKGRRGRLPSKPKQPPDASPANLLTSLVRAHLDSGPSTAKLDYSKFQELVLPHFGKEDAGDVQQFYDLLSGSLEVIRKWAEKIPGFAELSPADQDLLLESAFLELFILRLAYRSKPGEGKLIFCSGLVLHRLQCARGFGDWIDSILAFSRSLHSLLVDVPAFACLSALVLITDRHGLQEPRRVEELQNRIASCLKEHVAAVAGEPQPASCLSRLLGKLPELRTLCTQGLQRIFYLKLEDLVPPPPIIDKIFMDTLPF

[5] = biological target: Steroidogenic factor 1 (Homo sapiens) (UniProt Q13285); experiment: Selectivity interaction (Reporter gene assay) EUB0000551aCl NR5A1
Sequence of Steroidogenic factor 1 (Homo sapiens) (Q13285 whole entry): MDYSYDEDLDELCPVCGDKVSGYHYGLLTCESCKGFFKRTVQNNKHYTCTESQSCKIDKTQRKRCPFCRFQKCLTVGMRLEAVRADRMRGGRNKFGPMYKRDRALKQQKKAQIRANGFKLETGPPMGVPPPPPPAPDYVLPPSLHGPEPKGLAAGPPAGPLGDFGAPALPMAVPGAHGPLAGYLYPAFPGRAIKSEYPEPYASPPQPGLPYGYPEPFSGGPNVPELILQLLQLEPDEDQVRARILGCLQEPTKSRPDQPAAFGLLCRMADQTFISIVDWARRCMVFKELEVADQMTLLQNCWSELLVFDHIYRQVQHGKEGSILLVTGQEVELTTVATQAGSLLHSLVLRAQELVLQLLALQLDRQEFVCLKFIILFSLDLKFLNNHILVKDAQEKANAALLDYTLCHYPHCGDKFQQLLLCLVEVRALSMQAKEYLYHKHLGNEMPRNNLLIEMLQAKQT

[6] = biological target: T3, Alpha trans-inducing protein (Human alphaherpesvirus 1) (UniProt A0A5J6DW59); experiment: Selectivity interaction (Reporter gene assay) EUB0000551aCl UL48
T3 sequence (A0A5J6DW59 as listed by the source): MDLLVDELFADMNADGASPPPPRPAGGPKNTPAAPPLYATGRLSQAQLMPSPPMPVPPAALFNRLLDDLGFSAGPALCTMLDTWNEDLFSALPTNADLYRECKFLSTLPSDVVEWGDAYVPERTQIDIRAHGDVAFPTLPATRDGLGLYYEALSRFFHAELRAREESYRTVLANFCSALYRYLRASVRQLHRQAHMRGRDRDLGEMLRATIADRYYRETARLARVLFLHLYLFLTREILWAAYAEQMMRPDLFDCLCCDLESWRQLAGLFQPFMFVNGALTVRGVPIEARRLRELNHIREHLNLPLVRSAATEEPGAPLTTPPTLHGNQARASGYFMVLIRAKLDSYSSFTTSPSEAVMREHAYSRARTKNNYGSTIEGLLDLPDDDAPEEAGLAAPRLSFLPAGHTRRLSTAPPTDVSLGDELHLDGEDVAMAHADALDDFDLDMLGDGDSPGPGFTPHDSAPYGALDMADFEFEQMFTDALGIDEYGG

[7] = biological target: T4, Retinoic acid receptor RXR-alpha (Homo sapiens) (UniProt P19793); experiment: Selectivity interaction (Reporter gene assay) EUB0000551aCl RXRA; settings: reference bexarotene 1 uM, Selectivity number of off-targets 0.0, Selectivity number of targets 1.0, Source Knowledge inhouse
T4 sequence (whole entry): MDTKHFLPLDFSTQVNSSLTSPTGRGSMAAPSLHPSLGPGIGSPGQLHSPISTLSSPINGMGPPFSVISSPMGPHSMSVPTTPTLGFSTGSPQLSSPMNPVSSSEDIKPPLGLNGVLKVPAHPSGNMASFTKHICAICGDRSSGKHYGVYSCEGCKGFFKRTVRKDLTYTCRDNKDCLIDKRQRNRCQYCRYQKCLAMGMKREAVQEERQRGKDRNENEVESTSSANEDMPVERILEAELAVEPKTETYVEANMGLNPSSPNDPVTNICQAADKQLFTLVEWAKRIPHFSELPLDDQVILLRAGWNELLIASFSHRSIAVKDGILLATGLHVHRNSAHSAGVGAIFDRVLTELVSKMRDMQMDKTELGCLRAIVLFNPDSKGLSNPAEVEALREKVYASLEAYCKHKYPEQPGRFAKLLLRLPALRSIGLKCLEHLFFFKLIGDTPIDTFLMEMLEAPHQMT

[8] = biological target: T2, Nuclear receptor subfamily 2 group C member 1 (Homo sapiens); experiment: Selectivity interaction (Reporter gene assay) EUB0000568a NR2C1; settings: screened at recom. conc., Selectivity number of off-targets 2.0, Selectivity number of targets 5.0, Source Knowledge inhouse
[9] = biological target: Nuclear receptor subfamily 2 group E member 1 (Homo sapiens) (UniProt Q9Y466); experiment: Selectivity interaction (Reporter gene assay) EUB0000568a NR2E1; settings: screened at recom. conc., Selectivity number of off-targets 2.0, Selectivity number of targets 5.0, Source Knowledge inhouse
[10] = biological target: T1, Hepatocyte nuclear factor 4-alpha (Homo sapiens); experiment: Selectivity interaction (Reporter gene assay) EUB0000568a HNF4A
[11] = biological target: Nuclear receptor subfamily 4immunitygroup A member 1 (Homo sapiens) (UniProt P22736); experiment: Selectivity interaction (Reporter gene assay) EUB0000568a NR4A1
[12] = biological target: Steroidogenic factor 1 (Homo sapiens) (UniProt Q13285); experiment: Selectivity interaction (Reporter gene assay) EUB0000568a NR5A1
[13] = biological target: T3, Alpha trans-inducing protein (Human alphaherpesvirus 1); experiment: Selectivity interaction (Reporter gene assay) EUB0000568a UL48
[14] = biological target: T4, Retinoic acid receptor RXR-alpha (Homo sapiens); experiment: Selectivity interaction (Reporter gene assay) EUB0000568a RXRA; settings: reference bexarotene 1 uM, Selectivity number of off-targets 0.0, Selectivity number of targets 1.0, Source Knowledge inhouse
[15] = biological target: T1, Hepatocyte nuclear factor 4-alpha (Homo sapiens); experiment: Selectivity interaction (Reporter gene assay) EUB0000565a HNF4A
[16] = biological target: T2, Nuclear receptor subfamily 2 group C member 1 (Homo sapiens); experiment: Selectivity interaction (Reporter gene assay) EUB0000565a NR2C1
[17] = biological target: Nuclear receptor subfamily 2 group E member 1 (Homo sapiens) (UniProt Q9Y466); experiment: Selectivity interaction (Reporter gene assay) EUB0000565a NR2E1
[18] = biological target: Nuclear receptor subfamily 4immunitygroup A member 1 (Homo sapiens) (UniProt P22736); experiment: Selectivity interaction (Reporter gene assay) EUB0000565a NR4A1
[19] = biological target: Steroidogenic factor 1 (Homo sapiens) (UniProt Q13285); experiment: Selectivity interaction (Reporter gene assay) EUB0000565a NR5A1
[20] = biological target: T3, Alpha trans-inducing protein (Human alphaherpesvirus 1); experiment: Selectivity interaction (Reporter gene assay) EUB0000565a UL48
[21] = biological target: T4, Retinoic acid receptor RXR-alpha (Homo sapiens); experiment: Selectivity interaction (Reporter gene assay) EUB0000565a RXRA; settings: reference bexarotene 1 uM, Selectivity number of off-targets 0.0, Selectivity number of targets 1.0, Source Knowledge inhouse
[22] = biological target: Retinoic acid receptor beta (Homo sapiens) (UniProt P10826); experiment: Selectivity interaction (Reporter gene assay) EUB0000565a RARB; settings: screened at recom. conc., Selectivity number of off-targets 0.0, Selectivity number of targets 19.0, Source Knowledge inhouse
Sequence of Retinoic acid receptor beta (Homo sapiens) (P10826 whole entry): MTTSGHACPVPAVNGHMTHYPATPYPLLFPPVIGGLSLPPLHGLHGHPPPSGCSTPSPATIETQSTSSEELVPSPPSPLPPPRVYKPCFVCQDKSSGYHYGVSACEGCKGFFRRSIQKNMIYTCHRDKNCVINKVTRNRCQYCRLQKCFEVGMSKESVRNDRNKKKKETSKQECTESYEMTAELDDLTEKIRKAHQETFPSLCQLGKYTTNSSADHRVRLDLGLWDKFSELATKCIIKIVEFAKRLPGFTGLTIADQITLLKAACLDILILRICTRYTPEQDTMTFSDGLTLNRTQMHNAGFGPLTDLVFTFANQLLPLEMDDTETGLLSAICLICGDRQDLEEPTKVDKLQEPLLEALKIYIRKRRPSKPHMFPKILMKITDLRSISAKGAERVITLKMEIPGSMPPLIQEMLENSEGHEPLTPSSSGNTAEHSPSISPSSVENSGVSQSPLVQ

[23] = biological target: T1, Hepatocyte nuclear factor 4-alpha (Homo sapiens); experiment: Selectivity interaction (Reporter gene assay) EUB0000566a HNF4A
[24] = biological target: T2, Nuclear receptor subfamily 2 group C member 1 (Homo sapiens); experiment: Selectivity interaction (Reporter gene assay) EUB0000566a NR2C1
[25] = biological target: Nuclear receptor subfamily 2 group E member 1 (Homo sapiens) (UniProt Q9Y466); experiment: Selectivity interaction (Reporter gene assay) EUB0000566a NR2E1
[26] = biological target: Nuclear receptor subfamily 4immunitygroup A member 1 (Homo sapiens) (UniProt P22736); experiment: Selectivity interaction (Reporter gene assay) EUB0000566a NR4A1
[27] = biological target: Steroidogenic factor 1 (Homo sapiens) (UniProt Q13285); experiment: Selectivity interaction (Reporter gene assay) EUB0000566a NR5A1
[28] = biological target: T3, Alpha trans-inducing protein (Human alphaherpesvirus 1); experiment: Selectivity interaction (Reporter gene assay) EUB0000566a UL48
[29] = biological target: T4, Retinoic acid receptor RXR-alpha (Homo sapiens); experiment: Selectivity interaction (Reporter gene assay) EUB0000566a RXRA
[30] = biological target: T1, Hepatocyte nuclear factor 4-alpha (Homo sapiens); experiment: Selectivity interaction (Reporter gene assay) EUB0000555a HNF4A
[31] = biological target: T2, Nuclear receptor subfamily 2 group C member 1 (Homo sapiens); experiment: Selectivity interaction (Reporter gene assay) EUB0000555a NR2C1
[32] = biological target: Nuclear receptor subfamily 2 group E member 1 (Homo sapiens) (UniProt Q9Y466); experiment: Selectivity interaction (Reporter gene assay) EUB0000555a NR2E1
[33] = biological target: Nuclear receptor subfamily 4immunitygroup A member 1 (Homo sapiens) (UniProt P22736); experiment: Selectivity interaction (Reporter gene assay) EUB0000555a NR4A1
[34] = biological target: Steroidogenic factor 1 (Homo sapiens) (UniProt Q13285); experiment: Selectivity interaction (Reporter gene assay) EUB0000555a NR5A1
[35] = biological target: T3, Alpha trans-inducing protein (Human alphaherpesvirus 1); experiment: Selectivity interaction (Reporter gene assay) EUB0000555a UL48
[36] = biological target: T4, Retinoic acid receptor RXR-alpha (Homo sapiens); experiment: Selectivity interaction (Reporter gene assay) EUB0000555a RXRA

Compound: Cc1cccc(CN2CCN(C(c3ccccc3)c3ccc(Cl)cc3)CC2)c1 (stereo unspecified)
Fold activation [1]: 1
Fold activation [2]: 1.14
Fold activation [3]: 1.01
Fold activation [4]: 1.12
Remaining activity [5]: 0.814
P-value [6]: 0.00398
Relative activation [7]: 0.534%

Compound: CC1(C)C(=O)C(C)(C)c2cc(C(=O)Nc3ccc(C(=O)O)cc3)ccc21
Remaining activity [15]: 0.954
Fold activation [16]: 1
Remaining activity [17]: 0.923
Remaining activity [18]: 0.925
Remaining activity [19]: 0.944
P-value [20]: 0.000922
Relative activation [21]: 0.48%
Fold activation [22]: 13.5

Compound: CC1(C)CCC(C)(C)c2cc(NC(=O)c3ccc(C(=O)O)cc3)ccc21
Fold activation [23]: 0.997
Remaining activity [24]: 0.903
Remaining activity [25]: 0.763
Fold activation [26]: 1.31
Remaining activity [27]: 0.902
P-value [28]: 2.26e-06
Relative activation [29]: 0.52%

Results, then the compound that gave them:

Fold activation [8]: 1.5
Fold activation [9]: 2.03
Remaining activity [10]: 0.803
Fold activation [11]: 1.24
Fold activation [12]: 1.34
P-value [13]: 0.0191
Relative activation [14]: 0.61%
Compound: O=C(O)c1ccc2cc(-c3ccc(O)c(C45CC6CC(CC(C6)C4)C5)c3)ccc2c1

Remaining activity [30]: 0.559
Remaining activity [31]: 0.695
Fold activation [32]: 1.03
Remaining activity [33]: 0.804
Remaining activity [34]: 0.79
P-value [35]: 8.08e-06
Relative activation [36]: 0.715%
Compound: N[C@@H](Cc1cc(I)c(Oc2ccc(O)c(I)c2)c(I)c1)C(=O)O

— ChEMBL document CHEMBL5715260, “Selectivity Literature for EUbOPEN Chemogenomic Library” (2024)
